Assay results from US20240392383A1, “Cancer biomarkers for susceptibility to treatment by almitrine” (priority 2021, published 2024).
Read-outs that look alike come from different tables or passages of the source.

Assays:
[1] = cited from earlier work
[2] = intravenous 459±155 mg almitrine dimesylate infused within 24 hours [16], cited from earlier work
[3] = test system: NCI-60 cancer cell lines; assay: CellMiner gene expression correlated with growth inhibition (%) at 10 μM (mean of NCI 1-dose and 5-dose protocols); type: cell-based, human
From the text: Correlations first found using NCI COMPARE, with the aforementioned method, were then further corroborated using cancer gene expression data sourced from the CellMiner database. Indeed, the following NCI 1-dose and 5-dose anti-cancer data for almitrine dimesylate, with serial codes given that will be used to refer to each hereafter, was compared with cancer gene expression data sourced from CellMiner:
The CellMiner database includes five independent Human Genome gene expression data sets {accession numbers: GSE5949, GSE5720, GSE32474, GSE29682, GSE29288}, each of which can have multiple different transcript sequence probes for a single gene, wherein the mean expression for each gene was taken: within and across the different databases, which is distinct from NCI COMPARE where all expressions of different sequence transcripts for a gene were kept distinct without any averaging, and where there was no averaging across gene expression data sets, each was kept distinct. Although actually only four of these gene expression data sets in CellMiner were used to generate the mean for each gene expression: the single gene expression data set that used an Agilent instead of an Affymetrix microarray chip (GSE29288) was excluded from the mean because, to quote the CellMiner documentation: “Agilent probe(s) values are removed from cell line average intensity calculation due to normalization inconsistency with Affymetrix probesets”. […] So, the data set sourced from an Agilent microarray chip was not incorporated in the mean, but was instead used by itself separately for an independent verification. With much less data, the Agilent set is much less reliable than the mean of the 4 Affymetrix microarray data sets, but it is a nice independent adjudicator. This Agilent data set is not one of the six gene expression data sets at NCI COMPARE. By contrast, there is some overlap in the 4 CellMiner gene expression databases that were used for the mean and the 6 that were used with NCI COMPARE (some might be the same). […] Also, distinctly with the 4 Affymetrix microarray data sets in CellMiner, the mean expression for each gene was taken: averaging the expression of all the different sequence transcripts, across all the 4 used Affymetrix microarray data sets, for each gene. Moreover, this mean is very heavily weighted to a database that CellMiner has, and NCI COMPARE definitely doesn't, Accession number: GSE29682, because it tends to have many more probes for each gene than any other data set, indeed often more than all the others combined, each of which is an additional data point in the mean for each gene. […]

[4] = test system: NCI-60; conditions: NCI-60 testing; comparators e.g. carboplatin; reported in previous applications WO2019/012149A1; cited from earlier work
[5] = biological target: MYC/Max (Homo sapiens, UniProt P01106); conditions: cited from earlier work
Chain of MYC/Max (P01106 whole entry): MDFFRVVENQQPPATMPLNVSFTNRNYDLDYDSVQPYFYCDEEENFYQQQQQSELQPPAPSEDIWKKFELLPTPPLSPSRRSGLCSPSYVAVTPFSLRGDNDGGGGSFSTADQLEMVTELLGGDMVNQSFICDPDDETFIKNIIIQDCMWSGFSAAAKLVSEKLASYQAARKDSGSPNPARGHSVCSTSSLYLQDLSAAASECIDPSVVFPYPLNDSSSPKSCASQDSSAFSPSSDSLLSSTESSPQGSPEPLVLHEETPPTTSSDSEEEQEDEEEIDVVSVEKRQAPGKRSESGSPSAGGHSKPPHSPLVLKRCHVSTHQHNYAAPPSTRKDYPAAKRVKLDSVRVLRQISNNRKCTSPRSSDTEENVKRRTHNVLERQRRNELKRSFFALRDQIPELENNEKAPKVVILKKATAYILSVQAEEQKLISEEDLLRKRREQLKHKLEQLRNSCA

[6] = test system: AML cells; conditions: cited from earlier work
[7] = test system: CML; conditions: cited from earlier work
[8] = reason for not being suitable for in vivo use [18]; cited from earlier work
[9] = test system: CML; assay: Anti-CML activity; type: cell-based; conditions: almitrine (or salt, solvate, hydrate, prodrug) and imatinib/dasatinib/nilotinib/radotinib/bosutinib/ponatinib; anticipated by the teaching of this disclosure

SMILES: C=CCNc1nc(NCC=C)nc(N2CCN(C(c3ccc(F)cc3)c3ccc(F)cc3)CC2)n1 [almitrine dimesylate]
- Side-effects in humans compared with present cancer drugs ([1]; humans): less, close to no, side-effects
- Reversibility of side-effects ([1]; if side-effects occur [2]): reversible upon stopping the course in nearly all cases
- Side-effects ([1]; patients taking it daily for <11 months): no side-effects in nearly every patient
- Side-effects ([1]; patients taking it daily for >11 months to years [2]): side-effects in a very small minority of the many patients
- Adverse effect ([2]; subjects with normal liver function): without any adverse effect
- Blood [lactate] ([2]; subjects with poor/impaired liver function): can potentially increase blood [lactate]
- Anti-cancer activity vs SCAF11 minus RAPH1 gene expression (FIG. 1A bottom panel) ([3]; SCAF11 gene expression minus RAPH1 gene expression, CellMiner data): greater against cancers with greater value of SCAF11 gene expression minus RAPH1 gene expression
- Susceptibility to anti-cancer activity vs MYC oncogene expression (FIG. 1C) ([3]; gene MYC, CellMiner data): the more likely it is susceptible
- Anti-cancer activity vs RAPH1 gene expression (FIG. 1A middle panel) ([3]; gene RAPH1, CellMiner Affymetrix, Agilent and RNA-seq data): less against cancers with greater gene expression of RAPH1
- Anti-cancer activity vs SCAF11 gene expression (FIG. 1A upper panel) ([3]; gene SCAF11, CellMiner Affymetrix, Agilent and RNA-seq data): greater against cancers with greater gene expression of SCAF11
- Anti-cancer activity compared with present cancer drugs [4]: greater anti-cancer activity than many present cancer drugs

SMILES: CCc1ccc(/C=C2/SC(=S)NC2=O)cc1 [10058-F4]
- MYC/Max heterodimerization [5, 18]: does disrupt MYC/Max heterodimerization
- Affinity for target ([5]; target MYC [18]): low affinity for target
- Drug resistance of leukemic cells ([6]; AML, Myc inhibition [39]): can overcome drug resistance
- Differentiation of AML cells [6, 42]: causes AML cells to differentiate
- Apoptosis of AML cells ([6]; at higher concentrations [42]): induces their apoptosis
- Anti-cancer activity in combination ([7]; 10058-F4 and imatinib [26]): synergistic anti-cancer activity
- Anti-CML activity [7, 26]: exerts anti-CML activity
- Degradation [8]: fast degradation

SMILES: C=CCNc1nc(NCC=C)nc(N2CCN(C(c3ccc(F)cc3)c3ccc(F)cc3)CC2)n1 [almitrine]
- Anti-CML activity in combination [9]: synergistic anti-CML activity
